pIC50: −log10 of the molar value. Where two headings read alike, the source gives them in different places.
Experiments:
[1] = Brain Concentration in Mice; assay type: in vivo; details: mouse, mice (C57BL/6), read-out: Unbound-Brain Concentration at 2 h at 1 mg/kg
Method: Brain Concentration in Mice
Test compounds were orally administered to mice (C57BL/6) at 1 or 3 mg/kg. Brain samples were collected 2 h after the administration and homogenized with 3-fold volumes of distilled water.
LC-MS/MS analysis was conducted as specified below. Standard calibration samples were prepared using the same matrix and analyzed in the same manner.
Standard calibration samples were analyzed to calculate a regression equation from the peak area ratio (test compound/internal standard). The peak area ratio was determined for a measurement sample and assigned to the regression equation to calculate an assay value.

[2] = Metabolic Stability in Human Liver Microsomes; assay type: in vitro ADME
Method: Metabolic Stability in Human Liver Microsomes
Human liver microsome (BD Gentest Corporation, Cat No. #452161) incubations were conducted in duplicate in 96-well plates. Each well contains 40 μL of 0.1 M potassium phosphate buffer (pH 7.4), 4.125 mM MgCl2, 0.625 mg/mL liver microsomes, and test compound (1.25 μM). After 5-min preincubation at 37° C., 10 uL of 5.0 mM NADPH in 0.1M potassium phosphate buffer was added to initiate the enzymatic reaction. The final component concentrations are 0.1M potassium phosphate buffer (pH 7.4), 1.0 mM NADPH, 3.3 mM MgCl2, 0.5 mg/mL liver microsomes, and test compound (1.0 μM). Reactions were terminated at 0 and 60 min by adding 200 μL of ice-cold acetonitrile containing internal standard.
LC-MS/MS analysis was conducted as specified below.
The remaining at 60 min (%) of test compound was calculated from the peak area ratio (test compound/internal standard) of samples collected 0 and 60 min after the start of the reaction according to the formula described below. Remaining at 60 min (%)=peak area ratio of sample collected at 60 min/peak area ratio of sample collected at 0 min×100 [Results]

KDM5A = KDM5A (Homo sapiens (Human), UniProt P29375); assay: Biochemical KDM5A Inhibition Assay (HTRF); details: KDM5A protein, biotin-labelled H3K4-Me3 substrate
Chain of KDM5A (P29375 whole entry): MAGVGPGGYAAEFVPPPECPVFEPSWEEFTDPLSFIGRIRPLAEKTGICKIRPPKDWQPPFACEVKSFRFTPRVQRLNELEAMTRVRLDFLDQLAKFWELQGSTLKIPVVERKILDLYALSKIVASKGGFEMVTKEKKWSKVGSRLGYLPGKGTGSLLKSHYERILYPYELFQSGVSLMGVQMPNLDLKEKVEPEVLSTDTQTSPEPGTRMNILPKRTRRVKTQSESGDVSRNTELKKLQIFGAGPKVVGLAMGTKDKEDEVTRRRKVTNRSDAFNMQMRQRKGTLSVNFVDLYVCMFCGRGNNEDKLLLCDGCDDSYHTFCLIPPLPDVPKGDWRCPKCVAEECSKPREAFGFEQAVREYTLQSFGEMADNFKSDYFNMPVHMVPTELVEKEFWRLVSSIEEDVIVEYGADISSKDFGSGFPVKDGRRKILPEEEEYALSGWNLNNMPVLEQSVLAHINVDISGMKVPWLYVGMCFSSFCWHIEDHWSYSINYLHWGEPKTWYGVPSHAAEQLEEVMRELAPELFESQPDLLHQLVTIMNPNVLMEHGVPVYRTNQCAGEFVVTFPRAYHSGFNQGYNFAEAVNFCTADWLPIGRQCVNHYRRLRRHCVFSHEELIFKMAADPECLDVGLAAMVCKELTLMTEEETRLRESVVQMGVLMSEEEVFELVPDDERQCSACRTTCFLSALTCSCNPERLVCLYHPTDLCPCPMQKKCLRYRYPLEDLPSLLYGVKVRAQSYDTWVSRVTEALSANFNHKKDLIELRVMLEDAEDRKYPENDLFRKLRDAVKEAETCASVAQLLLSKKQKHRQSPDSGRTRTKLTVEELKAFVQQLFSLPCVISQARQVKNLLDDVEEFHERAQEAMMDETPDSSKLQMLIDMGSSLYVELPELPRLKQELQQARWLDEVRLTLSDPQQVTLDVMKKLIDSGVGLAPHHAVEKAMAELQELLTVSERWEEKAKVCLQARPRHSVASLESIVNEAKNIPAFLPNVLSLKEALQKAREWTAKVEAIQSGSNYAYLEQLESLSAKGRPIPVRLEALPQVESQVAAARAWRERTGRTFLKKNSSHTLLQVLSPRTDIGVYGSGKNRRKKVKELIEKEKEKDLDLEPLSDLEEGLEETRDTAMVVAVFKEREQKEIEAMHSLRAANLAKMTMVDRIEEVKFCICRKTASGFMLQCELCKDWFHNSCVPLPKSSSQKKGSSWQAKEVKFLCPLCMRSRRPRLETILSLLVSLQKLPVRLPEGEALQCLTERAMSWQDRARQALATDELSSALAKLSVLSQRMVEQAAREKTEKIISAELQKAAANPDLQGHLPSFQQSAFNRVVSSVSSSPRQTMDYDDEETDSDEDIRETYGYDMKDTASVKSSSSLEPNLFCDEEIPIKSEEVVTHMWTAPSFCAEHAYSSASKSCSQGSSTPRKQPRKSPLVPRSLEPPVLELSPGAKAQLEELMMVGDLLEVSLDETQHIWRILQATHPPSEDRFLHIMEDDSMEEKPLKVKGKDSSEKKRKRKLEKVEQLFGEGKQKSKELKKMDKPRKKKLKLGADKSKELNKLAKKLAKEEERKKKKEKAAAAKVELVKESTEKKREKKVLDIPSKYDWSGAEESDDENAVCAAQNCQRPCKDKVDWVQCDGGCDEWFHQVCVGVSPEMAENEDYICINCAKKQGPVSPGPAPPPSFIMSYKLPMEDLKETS
Method: Biochemical KDM5A Inhibition Assay
Using 384-well white Greiner784075 (Greiner), representative compounds were characterized for their inhibition of KDM5A using HTRF® technology (Cisbio Bioassays). Briefly, the test compounds, reference compounds, and DMSO control (typical compound concentration range 1 μM-[…], final assay concentration (FAC*) of DMSO 0.5%) were added to 384-well plate by the Echo® acoustic dispensing platform (Labcyte). Five (5) 1l of KDM5A protein (produced by the method described in Nat Chem Biol 12, 531-538 (2016)). (5-20 nM FAC*) in assay buffer (50 mM MES, 50 mM NaCl, 1 mM TCEP, 0.01% v/v Tween 20, 0.03% BSA, pH 6.5) was added to wells and plates were incubated for 10-20 minutes at 25 degrees celsius. Then, 5 μl of alpha-ketoglutaric acid (100 μM FAC*), biotin-labelled H3K4-Me3 substrate (Anaspec Cat #AS-64357-1; 200 nM FAC*), Fe(II)SO4 (100 μM FAC*) and ascorbic acid (2 mM FAC*) in assay buffer was added to wells and plates were incubated for 20 minutes at room temperature. The reaction was stopped with the addition of 10 μl of anti-H3K4-Me2-Eu(K) (Cisbio Bioassays Cat #61KA2KAH; 0.75 nM FAC**)+Streptavidin XL665 (Cisbio Bioassays Cat #610SAXLB; 25 nM FAC**) in HTRF detection buffer (Cisbio Bioassays Cat #62SDBRDF). The mixture was incubated for 30 minutes at room temperature before 340 nm excitation and measurement of dual emission at 620 nm and 665 run. *FAC: final assay concentration calculated based on 10 μl of the assay buffer**FAC: final assay concentration calculated based on 20 μl of the detection buffer
The raw data (a 665 nm and a 620 nm reading from each well) for individual assay plates were analyzed. The ratio of emissions was calculated using the following calculation: Ratio=(665 nm emission/620 nm emission)×10000. […] Compound IC50 values were calculated from graphs of % inhibition plotted against compound concentration, using a four parameter curve fit. [Results]

[3] = po, orally administered, 1 mg/kg, brain 2 h after administration
[4] = 0.5 mg/mL liver microsomes, 1.0 μM test compound, 1.0 mM NADPH, 37° C., 60 min
[5] = human, microsomes, 1 h, 1 μM, pH 7.4

## O=C(c1cn(C2CC2)cn1)N1C[C@@H]2[C@H](C1)[C@H]2C1=NOC2(CC2)C1 [Example 51, (1-cyclopropyl-1H-imidazol-4-yl)[(1R,5S,6r)-6-(4-oxa-5-azaspiro[2.4]hept-5-en-6-yl)-3-azabicyclo[3.1.0]hex-3-yl]methanone]
[1]; [3]
  concentration at 2 h: 55.3 ng/g
[2]; [4]
  Metabolic stability in human liver microsomes (% remaining at 60 min): 95%
KDM5A
  pIC50: 7.70

## CC(C)n1cnc(C(=O)N2C[C@@H]3[C@H](C2)[C@@]3(C)C2=NOC(C)(C)C2)c1 [Example 81, [(1R,5S,6r)-6-(5,5-dimethyl-4,5-dihydro-1,2-oxazol-3-yl)-6-methyl-3-azabicyclo[3.1.0]hex-3-yl](1-isopropyl-1H-imidazol-4-yl)methanone]
[1]; [3]
  concentration at 2 h: 21.9 ng/g
[2]; [5]
  Metabolic stability in human liver microsomes (% remaining at 60 min): 100%
KDM5A
  pIC50: 7.22

## CC1(C)CC([C@@]2(C)[C@@H]3CN(C(=O)c4cn(C5CC5)cn4)C[C@@H]32)=NO1 [Example 82, (1-cyclopropyl-1H-imidazol-4-yl)[(1R,5S,6r)-6-(5,5-dimethyl-4,5-dihydro-1,2-oxazol-3-yl)-6-methyl-3-azabicyclo[3.1.0]hex-3-yl]methanone]
[1]; [3]
  concentration at 2 h: 57.4 ng/g
[2]; [5]
  Metabolic stability in human liver microsomes (% remaining at 60 min): 104%
KDM5A
  pIC50: 7.52

## C[C@]1(C2=NOC3(CC3)C2)[C@@H]2CN(C(=O)c3cn(C4CC4)cn3)C[C@@H]21 [Example 85, (1-cyclopropyl-1H-imidazol-4-yl)[(1R,5S,6r)-6-methyl-6-(4-oxa-5-azaspiro[2.4]hept-5-en-6-yl)-3-azabicyclo[3.1.0]hex-3-yl]methanone]
[1]; [3]
  concentration at 2 h: 76.7 ng/g
[2]; [4]
  Metabolic stability in human liver microsomes (% remaining at 60 min): 98%
KDM5A
  pIC50: 7.70

## CC(C)c1cc(C(=O)N2C[C@@H]3[C@H](C2)[C@H]3C2=NOC(C)(C)C2)n[nH]1 [Example 88, [(1R,5S,6r)-6-(5,5-dimethyl-4,5-dihydro-1,2-oxazol-3-yl)-3-azabicyclo[3.1.0]hex-3-yl](5-isopropyl-1H-pyrazol-3-yl)methanone]
[1]; brain, oral, 2 h, values with * obtained by proportional calculation from the 3 mg/kg data
  concentration at 2 h: 39.5 ng/g
[2]; [5]
  Metabolic stability in human liver microsomes (% remaining at 60 min): 95%
KDM5A
  pIC50: 7.15

Reference: US11691968B2, “Compound having KDM5 inhibitory activity and pharmaceutical use thereof” (ONO PHARMACEUTICAL CO., LTD., priority 2020, dated 2023)
